# Activity calls are given as the source filed them. Unless noted, no cut-off for these calls is given here.
# Key:
# [1] = molecular target: Intestinal-type alkaline phosphatase (Homo sapiens, UniProt P09923); experiment: human intestinal alkaline phosphatase activators, dose response, biochemical, luminescence, uHTS hits (AID 463120); format: functional
# [2] = HepG2 cell cytotoxicity, dose response, cytotoxicity control, ATP luminescence, cherry-pick, activator set 2 (AID 1053143); format: functional, cell-based
# cells [3] = details: HEK293
# cells [4] = experiment: cells
# [5] = Late stage assay provider results from the probe development effort to identify inhibitors of the Plasmodium falciparum M17 Leucine Aminopeptidase (M17LAP): radiolabel-based cell-based dose response assay to identify compounds that inhibit P. falciparum growth in RBCs Set 2.; format: functional
# [6] = cytotoxicity in HepG2 cells, dose response, cytotoxicity control, cell-based, cherry-picked samples (AID 1053183); format: functional
# [7] = cytotoxicity in A549 cells, dose response, cytotoxicity control, cell-based, cherry-picked samples (AID 1053184); format: functional
# [8] = HepG2 cell cytotoxicity, dose response, cytotoxicity control, cherry-picked samples (AID 1159577); format: functional, cell-based
# [9] = cytotoxicity in HEK293 cells, dose response, cytotoxicity control, cell-based, cherry-picked samples (AID 1053185); format: functional
# [10] = P. falciparum Dd2 growth inhibitors, dose response, SYBR Green, cherry-picked samples (AID 1159567); format: functional, cell-based
# Streptococcus = experiment: Group A Streptococcus viability loss, dose response, counter-screen for streptokinase expression inhibitor project, luminescence, BacTiterGlo (AID 1915); format: functional, organism-based;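 note: potency for reduction of bacterial viability or growth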
# [11] = tested on: Streptococcus sp. 'group A'; experiment: growth inhibition of control SK(-) GAS strain, dose response, counter-screen for streptokinase expression inhibitor project, luminescence, kanamycin, BacTiterGlo, confirmation (AID 1900); format: functional, organism-based
# Vero = experiment: cells; format: functional; details: Chlorocebus sabaeus
# [12] = C. albicans growth with fluconazole, confirmation, fluorescence, retest (AID 2467); format: functional, cell-based
# [13] = inhibitors of intracellular T. cruzi replication, confirmation, NIH3T3 host cells, beta-gal luminescence (AID 2044); format: functional, cell-based;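 note: intracellular parasites grown in NIH/3T3 mouse fibroblasts as host cells; luminescent beta-galactosidase reporter signal from transgenic T. cruzi replicating inside host cells; inhibitors lower the luminescence signal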
# [14] = NIH-3T3 fibroblast cytotoxicity, dose response, cytotoxicity control, cell-based, fluorescence, Alamar Blue, secondary assay (AID 2327); format: functional;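 note: NIH-3T3 mouse fibroblasts cultured with fluconazole at 8 µg/mL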
# [15] = human group III sPLA2 inhibitors, dose response, biochemical, QFRET, IC50 (AID 743457);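 note: green fluorescence rise as the enzyme cleaves BODIPY PC-A2 in liposomes; potency for inhibition of the enzyme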
# [16] = molecular target: Metabotropic glutamate receptor 3 (Rattus norvegicus, UniProt P31422); experiment: mGlu3 negative allosteric modulator potency, dose response, HEK/GIRK cells, thallium flux, rat (AID 651839); format: functional
# [17] = MITF: Counter assay: A375 proliferation Measured in Cell-Based System Using Plate Reader - 2084-03_Inhibitor_Dose_DryPowder_Activity_Set8.; format: functional; details: A-375
# [18] = TRPM1 promoter luciferase reporter signal decrease, dose response, MITF inhibitor project, cell-based, SK-MEL-5, dry powder, set 8 (AID 624430); format: functional
# [19] = MITF Orthogonal Assay: SK-MEL-5 CTG Assay Measured in Cell-Based System Using Plate Reader - 2084-02_Inhibitor_Dose_DryPowder_Activity_Set7.; format: functional
# [20] = IRAP inhibitors, dose response, selectivity assay for ERAP1 modulator project, biochemical, Leu-AMC fluorescence, cherry-picked samples, set 2 (AID 743340)
# cells [21] = details: A549
# Sequence of Metabotropic glutamate receptor 3 (P31422 whole entry): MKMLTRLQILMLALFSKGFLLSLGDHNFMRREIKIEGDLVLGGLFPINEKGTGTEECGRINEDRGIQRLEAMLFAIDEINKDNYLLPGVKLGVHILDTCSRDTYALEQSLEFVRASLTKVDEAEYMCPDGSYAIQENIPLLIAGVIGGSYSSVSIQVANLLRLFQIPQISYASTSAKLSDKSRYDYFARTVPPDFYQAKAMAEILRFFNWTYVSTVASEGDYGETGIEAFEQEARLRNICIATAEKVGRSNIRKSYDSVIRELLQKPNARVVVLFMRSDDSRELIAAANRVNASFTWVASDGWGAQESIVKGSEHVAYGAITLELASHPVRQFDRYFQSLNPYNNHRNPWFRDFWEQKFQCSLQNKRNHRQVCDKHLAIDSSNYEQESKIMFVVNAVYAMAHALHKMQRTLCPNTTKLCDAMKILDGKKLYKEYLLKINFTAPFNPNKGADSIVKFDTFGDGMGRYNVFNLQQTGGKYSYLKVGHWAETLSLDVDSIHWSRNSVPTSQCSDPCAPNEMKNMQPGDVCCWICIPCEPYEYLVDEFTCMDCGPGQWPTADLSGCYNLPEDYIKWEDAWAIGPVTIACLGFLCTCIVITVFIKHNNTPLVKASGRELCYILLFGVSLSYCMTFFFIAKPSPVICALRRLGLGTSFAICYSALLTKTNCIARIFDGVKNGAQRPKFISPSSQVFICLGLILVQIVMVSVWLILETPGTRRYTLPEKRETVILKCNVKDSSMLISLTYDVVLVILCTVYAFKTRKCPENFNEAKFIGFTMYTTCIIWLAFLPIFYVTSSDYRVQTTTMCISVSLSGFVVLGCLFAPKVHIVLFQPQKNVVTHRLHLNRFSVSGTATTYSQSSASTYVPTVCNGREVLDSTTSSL
# Sequence of Intestinal-type alkaline phosphatase (P09923 whole entry): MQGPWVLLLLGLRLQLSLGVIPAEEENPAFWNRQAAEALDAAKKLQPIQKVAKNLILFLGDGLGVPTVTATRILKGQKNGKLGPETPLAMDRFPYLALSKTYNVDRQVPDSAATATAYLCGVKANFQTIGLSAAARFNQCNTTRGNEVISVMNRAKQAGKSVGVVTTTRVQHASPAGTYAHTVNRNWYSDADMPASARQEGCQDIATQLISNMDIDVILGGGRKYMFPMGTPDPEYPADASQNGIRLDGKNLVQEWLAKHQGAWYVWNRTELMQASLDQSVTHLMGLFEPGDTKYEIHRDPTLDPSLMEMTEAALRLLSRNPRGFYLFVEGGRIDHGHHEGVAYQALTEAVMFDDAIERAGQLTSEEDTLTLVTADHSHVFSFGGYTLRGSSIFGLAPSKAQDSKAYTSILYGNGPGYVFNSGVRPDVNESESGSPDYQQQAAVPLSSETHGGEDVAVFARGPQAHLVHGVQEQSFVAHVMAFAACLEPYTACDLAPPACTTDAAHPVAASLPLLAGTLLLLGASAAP
smiles,measurement,setting,value
c1ccc(Nc2ccnc(Nc3ccccc3)n2)cc1,EC50,[1],> 100 µM (inactive)
same,AC50,[2],26 µM (active)
COCCn1c(=N)c(S(=O)(=O)c2ccc(F)cc2)cc2c(=O)n3ccccc3nc21,AC50,cells [3],> 52 µM (inactive)
same,AC50,cells [4],1.5 µM (active)
COc1ccc(CC(=O)NO)cc1,IC50,[5],20 µM (inactive)
C/C=C/c1ccc([C@@H]2[C@@H]3CN(C(=O)Nc4ccc(C(F)(F)F)cc4)C[C@H]2N3)cc1,AC50,[6],16.7 µM (active)
same,AC50,[7],18.1 µM (active)
same,AC50,[8],10.3 µM (active)
same,AC50,[9],16.6 µM (active)
same,AC50,[10],6.85 µM (active)
Cc1cc(C(=O)Nc2nc(-c3ccccn3)cs2)ccc1[N+](=O)[O-],EC50,Streptococcus,7.36 µM (active)
same,EC50,[11],0.471 µM (active)
same,CC50,Vero,> 25 µM (active)
same,EC50,[12],1.25 µM (active)
same,EC50,[13],1.11 µM (active)
same,EC50,[14],> 150 µM (inactive)
same,IC50,[15],> 122 µM (inactive)
COc1ccc(C#Cc2ccc(C(=O)N3CC[C@H](O)C3)cc2)cc1,IC50,[16],8.66 µM (active)
CN1CCN(C2=C(Nc3cccc(Cl)c3)C(=O)c3ccccc3C2=O)CC1,AC50,[17],30.7 µM (active)
same,AC50,[18],5.11 µM (active)
same,AC50,[19],11.1 µM (active)
C[C@@H]1CCCCO[C@@H](CN(C)S(C)(=O)=O)[C@@H](C)CN([C@@H](C)CO)C(=O)c2cc(NS(=O)(=O)c3ccc(Cl)cc3)ccc2O1,AC50,[20],17.6 µM (active)
CCN(CC)c1ccc2c(C)c(Cl)c(=O)oc2c1,AC50,cells [21],> 52 µM (inactive)
